In patent US20040138291A1, “Treatment of sexual dysfunction” (priority 2002, published 2004):

Tests used:
[1] = system: aged (18 months) female Wistar rats; experiment: Recovery of APO-induced GVA response in aged female rats with short-term anti-hypertensive treatment; format: in vivo, rat
Method: Aged (18 months) and control (3-4 months) female Wistar rats were assessed for APO-induced GVA response as described above (Example 1). Aged females were then treated with enalapril (30 mg kg^−1day^−1, orally)+low salt diet for 2 weeks. Prior to, during, and after treatment, apomorphine (80 ug kg^−1, s.c.) was used to elicit GVA responses. The frequency of GVA responses per rat for a 30-minute period was determined as described above (Example 1).

[2] = system: male spontaneously hypertensive rats (SHR); experiment: APO-induced penile erectile response in aging SHR with anti-hypertensive and testosterone treatments; format: in vivo, rat; conditions: for number of erections relative to pre-treatment: summary of Example 3; for increase in number of erections two weeks off treatment: third treatment at 68 weeks, previously untreated rats, low salt diet, 30 mg/kg per day
Method: Animals: 30-week-old male spontaneously hypertensive rats (Charles River Laboratories, Montreal, Quebec, Canada) were housed individually at a temperature of 22-24° C. with a 12-hour light/dark cycle. They were provided with free access to regular rodent chow (0.4% Na^+) and tap water. All procedures were performed in accordance with the guidelines of the Canadian Council on Animal Care.
Anti-hypertensive Treatments. Rats were randomly divided into three groups. The control animals received only tap water. One treatment group received the ACE inhibitor enalapril maleate (30 mg/kg per day), and the other received the vasodilator hydralazine (45 mg/kg per day) (enalapril and hydralazine supplied by Sigma Chemical Co., St. Louis, Mo.) administered orally through their drinking water for 2 weeks. Aspartame (100 mg/1) was added to the hydralazine solution to improve the taste. Drug concentrations were calculated based on previously established drinking patterns^(24). Several times throughout the 2-week treatment period, the drug concentrations in the drinking water were adjusted to account for fluctuations in animal weight or fluid intake. Erectile response was measured in all groups with the administration of apomorphine (APO). APO-testing was performed three times before treatment and twice between days 7-14 of treatment.
A second two-week anti-hypertensive treatment was performed at 49 weeks of age. Rather than trying to prevent erectile dysfunction, this treatment attempted to restore erectile function. The same drugs and procedures were used as outlined above. APO-testing was performed twice between days 7-14 of treatment and twice off treatment.
Rats were randomized into four new treatment groups. The previously untreated rats received enalapril (30 mg/kg per day) or losartan (30 mg/kg per day) in their drinking water and were fed a low sodium diet (0.04% Na^+). After 6 days of treatment, a daily 4-hour access to salt containing regular chow (0.4% Na^+) was permitted to allow for a depressor response of 50% of the pre-treatment levels^(25). The treated rats received enalapril (30 mg/kg per day) in their drinking water and a low sodium diet (0.04% Na^+) or a triple therapy treatment^(24) combining hydralazine (45 mg/kg per day), a calcium channel blocker, nifedipine (200 mg per day) and a diuretic, hydrochlorothiazide (100 mg/l) (all drugs supplied by Sigma Chemical Co., St. Louis, Mo.). Hydralazine and hydrochlorothiazide were administered in the drinking water and nifedipine was mixed into ground regular rodent chow during the 12 h dark cycle. Aspartame (100 mg/l) was added to the hydralazine solution to improve the taste. APO-testing was performed twice between days 7-14 of treatment and twice off treatment.
Testosterone was prepared from a stock solution of testosterone propionate (Taro Pharmaceuticals, Bramalea, Ontario) diluted in peanut oil. Each rat received a single dose of testosterone (480 μg/kg) administered via subcutaneous injection in the neck. Testosterone was administered 36 hours prior to APO-testing.
Assessment of Erectile Response. Erectile response was assessed using the well-established bio-assay rat model developed by Heaton et al.^(17). The rats were placed in separate, wire hanging-wall cages with clear Plexiglas bottoms in a dark, quiet room and allowed to acclimate for 20 minutes. Each rat received apomorphine (80 μg/kg) in saline ([…] apomorphine plus 100 μg/ml ascorbic acid) via subcutaneous injection (1 ml/kg) in the loose skin of the neck or back. Erections and yawns were counted at 5-minute intervals over a 30-minute period via videomonitoring in an adjacent room.

female Wistar rats = experiment: APO-induced genital vasocongestive arousal (GVA) response bio-assay, intact rats; conditions: for average number of GVA responses: APO 80 ug/kg s.c.; for average number of GVA responses / yawning responses: 30 minutes; for yawning responses: intact animals
[3] = system: ovariectomized (OVX) Wistar rats; experiment: APO-induced responses in ovariectomized (OVX) rats; format: in vivo, rat
Method: A modification of a previous protocol using APO (80 ug/kg in 100 ug/ml ascorbic acid in water, s.c.) was used^(17). […] Rats were placed in hanging cages with bottoms constructed of Plexiglas®, in a dark, quiet room where they were allowed to acclimate for 10 minutes before the testing period. Following APO administration, the number of genital responses and associated yawning responses were recorded for a 30 minute period via a video monitoring system in an adjacent room.
APO-induced responses were determined in ovariectomized (OVX)^(22) rats to determine the effect of reduced levels of endogenous hormones. In brief, animals were anaesthetized with isoflurane gas delivered via a Bain rebreathing system. A small midline dorsal skin incision was made approximately half-way between the middle of the back and the base of the tail. Both ovaries were removed by ligating and severing the junction between the fallopian tube and uterine hom. Post-operative analgesia (buprenorphine, Buprenex™, 0.05 mg/kg) and antibiotics (0.1 ml/100 g body wt., Tribrissen™ 24%, Schering Canada Inc.) were administered daily for 5 days. Animals were given at least one week to recover before the onset of experimentation.

[4] = distribution over the 30-minute period

Structure (SMILES): CN1CCc2cccc3c2[C@H]1Cc1ccc(O)c(O)c1-3 [APO, apomorphine]
- average GVA responses in control (3-4 months) female rats ([1]; APO 80 ug/kg s.c., 30 minute period): about 2
- APO-induced GVA response rate in aged females ([1]; pre-treatment): 40%
- GVA responses in aged female rats relative to controls ([1]; prior to anti-hypertensive treatment, APO 80 ug/kg s.c.): significantly fewer
- APO-induced erectile responses with age ([2]; SHR 30-68 weeks, APO 80 μg/kg s.c.): progressive loss of response
- share of total GVA responses occurring within the first 20 minutes (female Wistar rats; 30-minute period): 80%
- genital grooming responses, dose-response assessment (female Wistar rats; APO 40, 80 & 120 ug/kg, result for 80 ug/kg, preliminary studies): greatest number of genital grooming responses
- non-GVA responses, APO vs control tested animals (female Wistar rats; any stage of the estrous cycle): no significant difference
- average number of GVA responses (female Wistar rats; diestrus 1): 1.13±1.36
- yawning responses (female Wistar rats; diestrus 1): 2±2.50
- average number of GVA responses (female Wistar rats; diestrus II): 0.88±0.85
- time of peak of APO-induced GVA responses (female Wistar rats; [4]): 5 to 10 min
- time of peak of APO-induced yawning responses (female Wistar rats; [4]): 15 to 20 min
- average number of GVA responses (female Wistar rats; estrus): 1.75±1.67
- average number of GVA responses (female Wistar rats; metestrus): 1.5±1.20
- yawning responses (female Wistar rats; metestrus): 3.63±3.96
- average number of GVA responses (female Wistar rats; proestrus, 8 rats): 1.5±1.06
- reduction of GVA responses in OVX rats relative to intact animals ([3]; 8 OVX Wistar rats, 30 minute period): about 80%
- non-GVA responses, OVX vs intact animals ([3]; APO administration): no significant difference

Structure (SMILES): CCC(=O)O[C@H]1CC[C@H]2[C@@H]3CCC4=CC(=O)CC[C@]4(C)[C@H]3CC[C@]12C [Testosterone, testosterone propionate]
- effect of testosterone on erectile response ([2]; 66 weeks of age): did not increase erectile response
- effect of testosterone on number of yawns ([2]; 66 weeks of age): significantly increase
- effect of testosterone supplementation on number of erections ([2]; control rats and rats treated with hydralazine, 47 and 66 weeks of age, 480 μg/kg s.c.): did not significantly affect
- increase in number of erections with testosterone ([2]; enalapril treated rats, after the first testosterone treatment): 2.5 fold

Structure (SMILES): CCOC(=O)[C@H](CCc1ccccc1)N[C@@H](C)C(=O)N1CCC[C@H]1C(=O)O [enalapril]
- frequency of APO-induced GVA responses off treatment relative to the treatment period ([1]; 1 & 3 week off-treatment, p<0.05): persistent and significant increase
- persistence of increased sexual responsiveness to APO after cessation of treatment ([1]; compared to pre-treatment levels): persisted for at least ten weeks
- overall APO-induced GVA response rate in aged females ([1]; during anti-hypertensive treatment): 56%
- APO-induced GVA responses during anti-hypertensive treatment ([1]; enalapril 30 mg/kg/day orally + low salt diet, 2 weeks, p=0.065): trend of increasing
- overall APO-induced GVA response rate in aged females ([1]; off-treatment): 93%
- partial behavioural responses ([1]; persisted after cessation of the treatment, FIG. 2): increase in the number of partial behavioural responses
- APO-induced GVA response of aged rats after two weeks of daily treatment ([1]; summary of pilot study): increased to levels of young rats
- average number of erections two weeks after treatment was withdrawn ([2]; second treatment at 49 weeks): significantly higher level than the pre treatment values
- increase in average number of erections on treatment vs pre treatment ([2]; second treatment at 49 weeks, not significant): > 2 fold
- number of erections relative to pre-treatment [2]: significant increases
- increase in number of erections two weeks off treatment [2]: 2 fold

Structure (SMILES): CCCCc1nc(Cl)c(CO)n1Cc1ccc(-c2ccccc2-c2nn[nH]n2)cc1 [losartan]
- number of erections relative to pre-treatment [2]: significant increases
- increase in number of erections two weeks off treatment [2]: 2 fold
